The record followed here is paper PMC3639963, “A New Class of Small Molecule Inhibitor of BMP Signaling” (PLoS ONE, 2013).

What all share (assay): Nanosyn kinase profiling
Assay type in all cases: biochemical
Holding throughout (conditions): read-out: Percentage inhibition; for inhibition at 0.1 µM: 0.1 µM inhibitor; for inhibition at 1 µM: 1 µM inhibitor

One assay addresses T1, AXL (Homo sapiens, UniProt P30530).
T1 construct: purchased Nanosyn (enzymatic panel); SGC in-house recombinant human kinases (DSF panel); Invitrogen (ALK1-6)
T1 sequence (P30530 26-894): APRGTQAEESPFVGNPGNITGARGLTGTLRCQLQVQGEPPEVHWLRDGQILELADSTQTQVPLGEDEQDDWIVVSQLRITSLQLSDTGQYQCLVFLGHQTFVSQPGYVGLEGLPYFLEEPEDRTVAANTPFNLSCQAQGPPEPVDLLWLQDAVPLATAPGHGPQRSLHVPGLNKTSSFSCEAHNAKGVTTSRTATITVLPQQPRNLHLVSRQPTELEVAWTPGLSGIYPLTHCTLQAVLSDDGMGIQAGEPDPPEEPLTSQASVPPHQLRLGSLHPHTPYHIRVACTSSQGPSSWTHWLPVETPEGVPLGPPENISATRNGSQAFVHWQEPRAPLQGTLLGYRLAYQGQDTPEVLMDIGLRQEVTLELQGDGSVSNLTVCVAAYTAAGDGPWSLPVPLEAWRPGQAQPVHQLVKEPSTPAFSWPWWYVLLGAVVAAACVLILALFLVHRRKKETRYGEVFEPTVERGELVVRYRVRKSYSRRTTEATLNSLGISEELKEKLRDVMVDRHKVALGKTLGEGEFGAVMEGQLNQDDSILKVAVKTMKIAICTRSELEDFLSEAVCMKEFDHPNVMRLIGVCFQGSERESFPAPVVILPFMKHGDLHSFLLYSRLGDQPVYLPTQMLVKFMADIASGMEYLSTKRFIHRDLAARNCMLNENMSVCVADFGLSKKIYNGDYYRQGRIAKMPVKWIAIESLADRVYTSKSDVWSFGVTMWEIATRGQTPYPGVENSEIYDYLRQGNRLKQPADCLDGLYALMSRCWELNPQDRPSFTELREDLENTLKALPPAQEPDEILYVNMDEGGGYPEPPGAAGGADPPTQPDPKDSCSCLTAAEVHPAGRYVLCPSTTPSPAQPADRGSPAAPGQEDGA
The procedure, abridged:
(§1)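 Percent inhibition of each kinase was measured with the inhibitor at 0.1 µM and at 1 µM, as part of a 200-kinase human selectivity panel.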

The target of another assay is T2, CSK (Homo sapiens, UniProt P41240).
T2 construct: purchased Nanosyn (enzymatic panel); SGC in-house recombinant human kinases (DSF panel); Invitrogen (ALK1-6)
The procedure, abridged: as §1

The next assay addresses T3, EPHA3 (Homo sapiens, UniProt P29320).
T3 construct: purchased Nanosyn (enzymatic panel); SGC in-house recombinant human kinases (DSF panel); Invitrogen (ALK1-6)
T3 sequence (P29320 21-983): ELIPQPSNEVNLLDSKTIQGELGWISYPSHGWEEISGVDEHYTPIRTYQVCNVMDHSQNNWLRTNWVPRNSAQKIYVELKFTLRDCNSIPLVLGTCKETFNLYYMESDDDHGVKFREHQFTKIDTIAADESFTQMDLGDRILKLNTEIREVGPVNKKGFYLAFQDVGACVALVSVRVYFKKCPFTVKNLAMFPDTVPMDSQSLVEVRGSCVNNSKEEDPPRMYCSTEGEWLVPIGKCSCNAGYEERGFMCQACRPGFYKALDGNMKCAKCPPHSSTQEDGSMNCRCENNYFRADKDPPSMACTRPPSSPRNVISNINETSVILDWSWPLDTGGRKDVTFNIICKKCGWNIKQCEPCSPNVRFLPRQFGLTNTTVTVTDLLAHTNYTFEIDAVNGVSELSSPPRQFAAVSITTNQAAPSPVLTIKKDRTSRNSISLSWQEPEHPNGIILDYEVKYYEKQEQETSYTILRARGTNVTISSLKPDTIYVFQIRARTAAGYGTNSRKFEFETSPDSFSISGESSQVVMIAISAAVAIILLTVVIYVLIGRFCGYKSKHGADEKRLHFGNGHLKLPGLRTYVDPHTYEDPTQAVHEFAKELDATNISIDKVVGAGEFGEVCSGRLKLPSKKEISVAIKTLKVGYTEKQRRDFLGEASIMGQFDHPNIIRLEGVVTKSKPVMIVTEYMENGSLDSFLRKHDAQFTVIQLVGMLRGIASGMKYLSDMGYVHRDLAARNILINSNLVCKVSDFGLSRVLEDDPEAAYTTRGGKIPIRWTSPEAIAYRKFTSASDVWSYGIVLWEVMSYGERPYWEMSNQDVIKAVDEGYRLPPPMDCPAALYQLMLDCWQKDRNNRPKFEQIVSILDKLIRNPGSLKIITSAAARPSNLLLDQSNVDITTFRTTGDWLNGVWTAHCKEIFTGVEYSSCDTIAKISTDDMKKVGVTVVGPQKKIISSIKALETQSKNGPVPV
The essentials:
as §1

A further assay has as its target T4, GSK3α (Homo sapiens, UniProt P49840).
T4 construct: purchased Nanosyn (enzymatic panel); SGC in-house recombinant human kinases (DSF panel); Invitrogen (ALK1-6)
The essentials:
as §1

For a further assay, the target named is T5, MSK1 (Homo sapiens, UniProt O75582).
T5 construct: purchased Nanosyn (enzymatic panel); SGC in-house recombinant human kinases (DSF panel); Invitrogen (ALK1-6)
T5 sequence (O75582 whole entry): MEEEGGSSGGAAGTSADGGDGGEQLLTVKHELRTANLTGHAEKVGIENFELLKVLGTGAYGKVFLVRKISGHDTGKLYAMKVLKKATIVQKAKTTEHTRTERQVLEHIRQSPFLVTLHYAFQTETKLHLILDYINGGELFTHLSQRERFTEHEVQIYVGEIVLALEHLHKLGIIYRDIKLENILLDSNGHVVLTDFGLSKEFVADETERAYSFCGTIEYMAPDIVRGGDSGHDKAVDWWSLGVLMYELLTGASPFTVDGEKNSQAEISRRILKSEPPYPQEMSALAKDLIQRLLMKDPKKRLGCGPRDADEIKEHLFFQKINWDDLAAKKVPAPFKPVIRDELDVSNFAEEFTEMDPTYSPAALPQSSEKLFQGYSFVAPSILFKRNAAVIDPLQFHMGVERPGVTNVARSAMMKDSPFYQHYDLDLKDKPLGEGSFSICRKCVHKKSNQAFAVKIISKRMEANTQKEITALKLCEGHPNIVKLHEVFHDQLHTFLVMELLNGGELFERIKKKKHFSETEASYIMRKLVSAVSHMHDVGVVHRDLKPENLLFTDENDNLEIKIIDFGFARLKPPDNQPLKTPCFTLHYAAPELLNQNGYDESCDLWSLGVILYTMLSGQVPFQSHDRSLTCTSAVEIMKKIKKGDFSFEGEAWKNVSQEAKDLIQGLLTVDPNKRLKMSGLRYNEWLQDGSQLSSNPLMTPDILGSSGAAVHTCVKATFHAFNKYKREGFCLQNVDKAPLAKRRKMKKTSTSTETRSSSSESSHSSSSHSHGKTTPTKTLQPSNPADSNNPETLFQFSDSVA
The essentials: as §1

The target in another assay is T6, PKCβ2 (Homo sapiens, UniProt P05771).
T6 construct: purchased Nanosyn (enzymatic panel); SGC in-house recombinant human kinases (DSF panel); Invitrogen (ALK1-6)
T6 sequence (P05771 1-673 isoform P05771-2): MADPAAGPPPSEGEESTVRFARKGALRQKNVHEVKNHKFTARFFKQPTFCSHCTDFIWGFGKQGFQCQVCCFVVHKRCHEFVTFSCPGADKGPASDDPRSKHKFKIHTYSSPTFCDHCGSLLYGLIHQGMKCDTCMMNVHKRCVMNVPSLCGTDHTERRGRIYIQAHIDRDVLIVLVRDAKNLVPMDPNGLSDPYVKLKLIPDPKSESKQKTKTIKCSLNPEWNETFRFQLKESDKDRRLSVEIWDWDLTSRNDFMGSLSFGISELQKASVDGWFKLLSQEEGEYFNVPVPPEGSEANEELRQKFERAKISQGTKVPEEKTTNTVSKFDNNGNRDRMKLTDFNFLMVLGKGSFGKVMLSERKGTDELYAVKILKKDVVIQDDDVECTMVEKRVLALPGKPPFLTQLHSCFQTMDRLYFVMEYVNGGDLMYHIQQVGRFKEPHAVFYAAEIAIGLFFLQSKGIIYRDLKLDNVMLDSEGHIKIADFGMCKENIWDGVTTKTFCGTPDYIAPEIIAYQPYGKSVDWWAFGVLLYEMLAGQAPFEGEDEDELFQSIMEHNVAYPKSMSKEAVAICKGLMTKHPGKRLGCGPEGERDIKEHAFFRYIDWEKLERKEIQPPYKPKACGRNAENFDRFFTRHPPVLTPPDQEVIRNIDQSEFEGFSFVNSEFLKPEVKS
The procedure, abridged:
as §1

The next assay has as its target T7, PYK2 (Homo sapiens, UniProt Q14289).
T7 construct: purchased Nanosyn (enzymatic panel); SGC in-house recombinant human kinases (DSF panel); Invitrogen (ALK1-6)
The essentials: as §1

The next assay deals with T8, RSK2 (Homo sapiens, UniProt P51812).
T8 construct: purchased Nanosyn (enzymatic panel); SGC in-house recombinant human kinases (DSF panel); Invitrogen (ALK1-6)
T8 sequence (P51812 whole entry): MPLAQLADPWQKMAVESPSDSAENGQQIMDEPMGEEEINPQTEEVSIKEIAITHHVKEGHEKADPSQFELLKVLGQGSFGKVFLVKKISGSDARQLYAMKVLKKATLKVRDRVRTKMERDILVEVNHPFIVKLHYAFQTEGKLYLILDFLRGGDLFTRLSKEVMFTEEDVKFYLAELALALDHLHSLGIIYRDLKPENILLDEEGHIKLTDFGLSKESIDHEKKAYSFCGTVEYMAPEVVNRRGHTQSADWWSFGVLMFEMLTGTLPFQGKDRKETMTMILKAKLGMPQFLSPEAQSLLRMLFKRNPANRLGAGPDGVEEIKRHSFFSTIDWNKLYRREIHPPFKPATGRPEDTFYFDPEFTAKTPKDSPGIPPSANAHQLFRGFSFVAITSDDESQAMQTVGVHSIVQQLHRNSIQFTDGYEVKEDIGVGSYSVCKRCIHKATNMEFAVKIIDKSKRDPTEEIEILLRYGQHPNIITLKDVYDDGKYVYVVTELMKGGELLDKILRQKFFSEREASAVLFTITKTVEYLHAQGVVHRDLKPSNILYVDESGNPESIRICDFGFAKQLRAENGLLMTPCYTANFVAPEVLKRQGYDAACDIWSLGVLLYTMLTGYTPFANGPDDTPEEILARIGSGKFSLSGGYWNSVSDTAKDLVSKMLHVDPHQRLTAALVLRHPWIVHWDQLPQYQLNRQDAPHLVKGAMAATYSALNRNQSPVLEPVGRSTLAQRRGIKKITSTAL
The essentials:
as §1

In a further assay the target is T9, RSK3 (Homo sapiens, UniProt Q15349).
T9 construct: purchased Nanosyn (enzymatic panel); SGC in-house recombinant human kinases (DSF panel); Invitrogen (ALK1-6)
T9 sequence (Q15349 whole entry): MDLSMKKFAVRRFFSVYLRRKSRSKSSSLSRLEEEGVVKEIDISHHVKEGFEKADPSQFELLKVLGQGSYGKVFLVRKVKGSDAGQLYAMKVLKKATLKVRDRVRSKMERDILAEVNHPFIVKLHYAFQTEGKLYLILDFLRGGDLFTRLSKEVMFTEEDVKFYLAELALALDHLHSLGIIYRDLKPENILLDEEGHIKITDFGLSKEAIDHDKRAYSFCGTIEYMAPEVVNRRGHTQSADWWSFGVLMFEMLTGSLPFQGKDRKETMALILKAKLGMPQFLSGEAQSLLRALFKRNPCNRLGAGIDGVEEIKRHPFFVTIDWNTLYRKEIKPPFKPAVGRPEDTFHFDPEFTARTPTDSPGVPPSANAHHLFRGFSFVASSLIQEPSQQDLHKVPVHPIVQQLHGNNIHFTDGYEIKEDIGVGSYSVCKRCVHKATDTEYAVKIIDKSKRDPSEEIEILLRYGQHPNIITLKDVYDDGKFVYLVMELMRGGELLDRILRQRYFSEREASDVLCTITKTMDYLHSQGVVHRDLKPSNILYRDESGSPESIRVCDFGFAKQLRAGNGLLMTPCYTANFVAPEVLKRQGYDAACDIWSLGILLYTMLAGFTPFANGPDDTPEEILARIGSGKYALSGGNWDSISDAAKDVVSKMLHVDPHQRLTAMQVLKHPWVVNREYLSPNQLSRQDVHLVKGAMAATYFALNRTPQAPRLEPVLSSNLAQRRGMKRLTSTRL
The procedure, abridged:
as §1

A further assay concerns the target T10, p38β (Homo sapiens, UniProt Q15759).
T10 construct: purchased Nanosyn (enzymatic panel); SGC in-house recombinant human kinases (DSF panel); Invitrogen (ALK1-6)
The essentials:
as §1

T7 sequence (Q14289 whole entry): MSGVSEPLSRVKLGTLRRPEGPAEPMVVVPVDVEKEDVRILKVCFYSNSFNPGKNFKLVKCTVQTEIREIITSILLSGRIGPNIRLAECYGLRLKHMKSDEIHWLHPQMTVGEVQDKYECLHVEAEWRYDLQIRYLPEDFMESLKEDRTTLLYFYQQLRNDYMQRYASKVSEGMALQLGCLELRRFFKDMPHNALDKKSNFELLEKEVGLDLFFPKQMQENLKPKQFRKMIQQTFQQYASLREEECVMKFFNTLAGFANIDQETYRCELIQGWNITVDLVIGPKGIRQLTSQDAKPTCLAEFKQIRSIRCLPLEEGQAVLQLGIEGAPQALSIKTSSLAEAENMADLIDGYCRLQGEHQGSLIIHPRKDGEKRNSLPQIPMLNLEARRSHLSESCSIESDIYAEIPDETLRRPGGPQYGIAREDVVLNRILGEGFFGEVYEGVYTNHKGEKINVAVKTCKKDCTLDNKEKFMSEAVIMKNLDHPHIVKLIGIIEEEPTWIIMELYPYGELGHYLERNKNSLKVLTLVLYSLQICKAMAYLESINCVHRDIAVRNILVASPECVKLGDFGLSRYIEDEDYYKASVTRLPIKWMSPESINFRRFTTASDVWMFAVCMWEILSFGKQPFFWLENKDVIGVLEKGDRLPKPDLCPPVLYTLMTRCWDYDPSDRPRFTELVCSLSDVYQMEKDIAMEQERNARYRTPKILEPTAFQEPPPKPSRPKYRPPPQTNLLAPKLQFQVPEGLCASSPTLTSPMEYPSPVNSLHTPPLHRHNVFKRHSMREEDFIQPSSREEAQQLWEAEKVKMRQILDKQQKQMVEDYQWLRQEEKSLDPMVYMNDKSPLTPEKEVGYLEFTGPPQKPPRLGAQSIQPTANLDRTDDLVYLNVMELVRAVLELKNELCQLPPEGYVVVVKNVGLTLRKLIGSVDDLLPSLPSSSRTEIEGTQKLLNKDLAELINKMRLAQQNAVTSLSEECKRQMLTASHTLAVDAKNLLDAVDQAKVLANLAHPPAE
T4 sequence (P49840 whole entry): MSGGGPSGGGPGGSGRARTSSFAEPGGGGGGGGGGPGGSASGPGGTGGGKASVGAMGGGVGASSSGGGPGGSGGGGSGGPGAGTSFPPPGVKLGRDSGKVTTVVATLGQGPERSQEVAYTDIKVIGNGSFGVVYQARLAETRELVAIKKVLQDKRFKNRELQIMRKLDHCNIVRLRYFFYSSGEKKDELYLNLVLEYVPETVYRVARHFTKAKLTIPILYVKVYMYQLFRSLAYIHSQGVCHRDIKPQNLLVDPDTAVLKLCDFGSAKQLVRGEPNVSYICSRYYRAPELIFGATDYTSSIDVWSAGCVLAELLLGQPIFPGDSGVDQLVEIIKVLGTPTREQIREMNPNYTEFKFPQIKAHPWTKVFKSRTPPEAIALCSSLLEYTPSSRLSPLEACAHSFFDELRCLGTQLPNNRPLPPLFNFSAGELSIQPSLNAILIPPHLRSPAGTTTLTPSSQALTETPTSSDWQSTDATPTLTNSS
T10 sequence (Q15759 whole entry): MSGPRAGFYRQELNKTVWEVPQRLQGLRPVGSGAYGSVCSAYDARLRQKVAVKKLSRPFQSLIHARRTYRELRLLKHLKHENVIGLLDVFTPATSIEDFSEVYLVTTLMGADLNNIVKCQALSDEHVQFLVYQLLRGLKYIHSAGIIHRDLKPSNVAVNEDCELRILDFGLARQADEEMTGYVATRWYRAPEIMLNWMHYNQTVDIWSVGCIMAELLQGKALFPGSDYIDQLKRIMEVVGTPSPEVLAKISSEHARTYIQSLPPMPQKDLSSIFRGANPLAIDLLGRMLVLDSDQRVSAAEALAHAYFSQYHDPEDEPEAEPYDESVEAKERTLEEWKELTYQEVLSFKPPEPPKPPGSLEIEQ

In the case of `COc1cc(-c2cc(-c3cccc(O)c3)cnc2N)cc(OC)c1OC` [K02288, 3-[6-amino-5-(3,4,5-trimethoxy-phenyl)-pyridin-3-yl]-phenol], the inhibition at 0.1 µM on AXL is 0.9%; on CSK, 3.2%; on EPHA3 it was -6%; at GSK3α it was 0.6%; on MSK1, -2%; on PKCβ2 it was 0%. For the same compound, the inhibition at 0.1 µM on PYK2 was -1%; on RSK2, 0.8%; at RSK3, 0.6%; at p38β, 0%. The inhibition at 1 µM at AXL is 1.5%; on CSK, 13%; at EPHA3, 4.3%; on GSK3α, 2.1%; on MSK1, -1%; on PKCβ2 it was -1%. In addition, the inhibition at 1 µM is 0% on PYK2, 2.2% on RSK2, 1.1% on RSK3 and 9.7% on p38β.

For the compound `c1ccc2c(-c3cnn4cc(-c5ccc(N6CCNCC6)cc5)cnc34)ccnc2c1` [LDN-193189], the inhibition at 0.1 µM at AXL was -4%; at CSK it was 3.3%; at EPHA3, 2.2%; at GSK3α, 3.2%; on MSK1 it was 1.1%; on PKCβ2, 1%. Moreover, the inhibition at 0.1 µM at PYK2 worked out at 4.6%; at RSK2 it was 1.2%; at RSK3, 1.5%; on p38β, 0.4%. Moreover, the inhibition at 1 µM at AXL was found to be 1.1%; at CSK, 6%; on EPHA3, 6.3%; at GSK3α, 1.1%; at MSK1, 1.3%; at PKCβ2, 1.8%. Besides, the inhibition at 1 µM came out at 9% on PYK2, 5.4% on RSK2, 5.6% on RSK3 and 1.5% on p38β.

In general, inhibition refers to the drop in the measured response relative to a control, in per cent.
